# US8034904B2, “Anti-IGF-I receptor antibody” (Immunogen Inc., priority 2002, dated 2011)
# Experiments:
# [1] = Bhuyan et al., 1982; cited from earlier work
# [2] = tested on: multiple myeloma; details: previously untreated stages I or II myeloma; cited from earlier work
# [3] = tested on: Human non-small cell lung cancer Calu-6 xenografts; assay type: in vivo; details: established 100 mm^3 Calu-6 xenografts; EM164 0.8 mg/mouse i.v. x6; taxol 15 mg/kg i.p. x5
# Source text: Human non-small cell lung cancer Calu-6 xenografts were established in immunodeficient mice by subcutaneous injections of 1×10^7 Calu-6 cells.
# [4] = tested on: SK-Mel-37 cells; test: Growth and survival of SK-Mel-37 cells (MTT assay); assay type: cell-based, human; details: 10 ng/mL IGF-I, 3- to 4-day
# Method: (§1) Several human tumor cell lines were tested in serum-free conditions for their growth and survival response to IGF-I. These cell lines were treated with EM164 antibody in the presence of IGF-I, IGF-II, or serum, and their growth and survival responses were measured using an MTT assay after 2-4 days. Approximately 1500 cells were plated in a 96-well plate in regular medium with serum, which was replaced with serum-free medium the following day (either serum-free RPMI medium supplemented with transferrin and BSA, or phenol-red free medium as specified by Dufourny, B. et al., 1997, J. Biol. Chem., 272, 31163-31171). After one day of growth in serum-free medium, the cells were incubated with about 75 μL of 10 μg/mL antibody for 30 min.-3 h, followed by the addition of 25 μL of IGF-I (or IGF-II or serum) solution to obtain a final concentration of 10 ng/mL IGF-I, or 20 ng/mL IGF-II, or 0.04-10% serum. In some experiments, the cells were stimulated first with IGF-I for 15 min before the addition of EM164 antibody, or both IGF-I and EM164 antibody were added together. The cells were then allowed to grow for another 2-3 days. […] The medium was then removed and replaced by 100 μL DMSO, mixed, and the absorbance of the plate was measured at 545 nm.
# [5] = tested on: SaOS-2 (osteosarcoma) cells; test: Growth and survival of SaOS-2 cells (MTT assay); assay type: cell-based, human; details: 10 ng/mL IGF-I, 3- to 4-day
# Method: (§2) Several human tumor cell lines were tested in serum-free conditions for their growth and survival response to IGF-I. These cell lines were treated with EM164 antibody in the presence of IGF-I, IGF-II, or serum, and their growth and survival responses were measured using an MTT assay after 2-4 days. Approximately 1500 cells were plated in a 96-well plate in regular medium with serum, which was replaced with serum-free medium the following day (either serum-free RPMI medium supplemented with transferrin and BSA, or phenol-red free medium as specified by Dufourny, B. et al., 1997, J. Biol. Chem., 272, 31163-31171). After one day of growth in serum-free medium, the cells were incubated with about 75 μL of 10 μg/mL antibody for 30 min.-3 h, followed by the addition of 25 μL of IGF-I (or IGF-II or serum) solution to obtain a final concentration of 10 ng/mL IGF-I, or 20 ng/mL IGF-II, or 0.04-10% serum. In some experiments, the cells were stimulated first with IGF-I for 15 min before the addition of EM164 antibody, or both IGF-I and EM164 antibody were added together. The cells were then allowed to grow for another 2-3 days. A solution of MTT (3-(4,5)-dimethylthiazol-2-yl)-2,5-diphenyltetrazolium bromide; 25 μL of a 5 mg/mL solution in PBS) was then added and the cells were returned to the incubator for 2-3 h. The medium was then removed and replaced by 100 μL DMSO, mixed, and the absorbance of the plate was measured at 545 nm.
# [6] = tested on: HT-29 colon cancer cells; test: Growth and survival of HT-29 cells (MTT assay, colony formation); assay type: cell-based, human; details: HT-29; 10 ng/mL IGF-I, 3- to 4-day
# Method: as §2
# [7] = tested on: Colo 205 (colon) cells; test: Growth and survival of Colo 205 cells (MTT assay); assay type: cell-based, human; details: 10 ng/mL IGF-I, 3- to 4-day
# Method: as §2
# [8] = tested on: A 431 (epidermoid) cells; test: Growth and survival of A 431 cells (MTT assay); assay type: cell-based, human; details: 10 ng/mL IGF-I, 3- to 4-day
# Method: as §2
# [9] = tested on: SK-LU-1 cells; test: Growth and survival of SK-LU-1 cells (MTT assay); assay type: cell-based, human; details: 10 ng/mL IGF-I, 3- to 4-day
# Method: as §2
# [10] = tested on: Calu-6 non-small cell lung cancer cells; test: Growth and survival of Calu-6 cells (MTT assay); assay type: cell-based, human; details: 10 ng/mL IGF-I, 3- to 4-day
# Method: as §2
# [11] = tested on: MCF-7 cells; test: Cell cycle analysis of MCF-7 cells (propidium iodide, flow cytometry); assay type: cell-based, human; details: IGF-I 20 ng/mL with or without EM164 20 μg/mL, 1 day
# Method: The EM164 antibody caused growth arrest of cells in G0/G1 phase of cell cycle and abrogated the mitogenic effect of IGF-I. For cell cycle analysis, MCF-7 cells were treated with IGF-I (20 ng/mL) in the presence or absence of EM164 (20 μg/mL) for 1 day and then analyzed by propidium iodide staining and flow cytometry.
# [12] = tested on: SK-N-SH (neuroblastoma) cells; test: Growth and survival of SK-N-SH cells (MTT assay); assay type: cell-based, human; details: 10 ng/mL IGF-I, 3- to 4-day
# Method: as §2
# [13] = tested on: MCF-7 (breast) cells; test: Growth and survival of MCF-7 cells (MTT assay); assay type: cell-based, human
# Method: as §2
# [14] = tested on: HT-3 (cervical) cells; test: Growth and survival of HT-3 cells (MTT assay); assay type: cell-based, human; details: 10 ng/mL IGF-I, 3- to 4-day
# Method: as §1
# [15] = tested on: A 375 (melanoma) cells; test: Growth and survival of A 375 cells (MTT assay); assay type: cell-based, human; details: 10 ng/mL IGF-I, 3- to 4-day
# Method: as §2
# [16] = tested on: NCI-H596 cells; test: Growth and survival of NCI-H596 cells (MTT assay); assay type: cell-based, human; details: 10 ng/mL IGF-I, 3- to 4-day
# Method: as §2
# [17] = tested on: NCI-H838 (lung) cells; test: Growth and survival of NCI-H838 cells (MTT assay); assay type: cell-based, human; details: NCI-H838 (lung); 10 ng/mL IGF-I, 3- to 4-day
# Method: as §2
# [18] = tested on: A 549 cells; test: Growth and survival of A 549 cells (MTT assay); assay type: cell-based, human; details: 10 ng/mL IGF-I, 3- to 4-day
# Method: as §1
# [19] = tested on: RD (rhabdomyocarcoma) cells; test: Growth and survival of RD cells (MTT assay); assay type: cell-based, human; details: 10 ng/mL IGF-I, 3- to 4-day
# Method: as §2
# [20] = molecular target: biotinylated human IGF-I receptor; test: ELISA binding titration (Kd) with biotinylated IGF-I receptor; details: ELISA titration, non-linear regression for one-site binding; read-out: dissociation constant (Kd)
# Method: The wells were next washed with TBS-T buffer and incubated with goat-anti-mouse-IgGH+L-antibody-horseradish peroxidase conjugate (100 μL; 0.5 μg/mL in blocking buffer), followed by washes and detection using ABTS/H2O2 substrate at 405 nm. The value of Kd was estimated by non-linear regression for one-site binding.
# A similar binding titration was carried out using the Fab fragment of EM164 antibody, prepared by papain digestion of the antibody as described by E. Harlow and D. Lane (“Using Antibodies: A Laboratory Manual”; 1999, Cold Spring Harbor Laboratory Press, New York).
# [21] = tested on: biotinylated full-length human IGF-I receptor; test: ELISA binding competition of humanized/chimeric versus murine EM164
# Method: The affinities of the humanized EM164 antibody versions 1.0-1.3 were compared to those of murine EM164 antibody through binding competition assays using biotinylated full-length human IGF-I receptor or myc-epitope tagged truncated IGF-I receptor alpha chain, as described above. Humanized EM164 antibody samples were obtained by transient transfection of the appropriate expression vectors in human embryonic kidney 293T cells, and antibody concentrations were determined by ELISA using purified humanized antibody standards. For ELISA binding competition measurements, mixtures of humanized antibody samples and various concentrations of murine EM164 antibody were incubated with indirectly captured biotinylated full-length IGF-I receptor or myc-epitope tagged truncated IGF-I receptor alpha chain. After equilibration, the bound humanized antibody was detected using a goat-anti-human-Fab′2-antibody-horseradish peroxidase conjugate. Plots of ([bound murine Ab]/[bound humanized Ab]) vs ([murine Ab]/[humanized Ab]), which theoretically yield a straight line with slope=(Kd humanized Ab/Kd murine Ab), were used to determine the relative affinities of the humanized and murine antibodies.
# An Immulon-2HB ELISA plate was coated with 100 μL of 5 μg/mL streptavidin per well in carbonate buffer at ambient temperature for 7 h. […] The wells were then washed with TBS-T buffer and incubated with goat-anti-human-Fab′2-antibody-horseradish peroxidase conjugate for 1 h (100 μL; 1 μg/mL in blocking buffer), followed by washes and detection using ABTS/H2O2 substrate at 405 nm.
# biotinylated full-length human IGF-I receptor, sequence (P08069 31-498 limits assumed): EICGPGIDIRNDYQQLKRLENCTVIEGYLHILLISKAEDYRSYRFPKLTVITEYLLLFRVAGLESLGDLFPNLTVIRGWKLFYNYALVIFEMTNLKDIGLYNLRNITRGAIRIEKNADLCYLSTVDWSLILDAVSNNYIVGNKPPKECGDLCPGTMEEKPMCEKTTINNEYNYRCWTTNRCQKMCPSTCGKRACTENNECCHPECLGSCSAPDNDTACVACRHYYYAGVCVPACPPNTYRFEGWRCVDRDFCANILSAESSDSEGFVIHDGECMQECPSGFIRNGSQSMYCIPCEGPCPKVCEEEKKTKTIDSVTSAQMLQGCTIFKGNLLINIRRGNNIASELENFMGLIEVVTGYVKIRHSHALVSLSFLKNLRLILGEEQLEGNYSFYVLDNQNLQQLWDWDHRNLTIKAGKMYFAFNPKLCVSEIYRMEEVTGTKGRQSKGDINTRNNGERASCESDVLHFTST
# biotinylated human IGF-I receptor, sequence (P08069 31-736 limits assumed): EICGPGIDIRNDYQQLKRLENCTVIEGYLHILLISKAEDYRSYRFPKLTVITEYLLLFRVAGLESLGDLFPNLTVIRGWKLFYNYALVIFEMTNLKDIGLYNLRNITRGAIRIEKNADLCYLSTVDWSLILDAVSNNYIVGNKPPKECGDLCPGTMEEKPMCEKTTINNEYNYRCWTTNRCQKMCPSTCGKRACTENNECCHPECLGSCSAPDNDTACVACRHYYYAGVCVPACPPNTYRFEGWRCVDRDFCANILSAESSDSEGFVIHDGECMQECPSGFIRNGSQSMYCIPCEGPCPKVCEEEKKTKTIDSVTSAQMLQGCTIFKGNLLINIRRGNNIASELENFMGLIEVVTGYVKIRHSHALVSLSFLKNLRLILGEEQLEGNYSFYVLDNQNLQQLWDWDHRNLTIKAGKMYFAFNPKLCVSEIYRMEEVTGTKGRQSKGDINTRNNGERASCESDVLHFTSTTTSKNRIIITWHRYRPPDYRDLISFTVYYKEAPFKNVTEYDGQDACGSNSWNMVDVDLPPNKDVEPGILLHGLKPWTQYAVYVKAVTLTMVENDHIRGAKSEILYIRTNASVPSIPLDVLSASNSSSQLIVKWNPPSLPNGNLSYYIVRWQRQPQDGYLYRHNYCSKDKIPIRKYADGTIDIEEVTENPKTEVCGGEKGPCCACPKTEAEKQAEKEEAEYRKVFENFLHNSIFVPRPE
# biotinylated human IGF-I receptor, sequence (P08069 741-935 limits assumed): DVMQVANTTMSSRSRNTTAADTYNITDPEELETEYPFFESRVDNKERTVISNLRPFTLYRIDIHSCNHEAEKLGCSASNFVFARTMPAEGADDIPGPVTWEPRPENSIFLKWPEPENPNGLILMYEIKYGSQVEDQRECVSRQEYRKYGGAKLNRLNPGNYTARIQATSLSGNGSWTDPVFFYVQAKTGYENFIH
molecule,measurement,setting,value
COc1c(O)c2c(c3cc(C(=O)N4CCc5c4c(O)c(OC)c4[nH]c(C(=O)N6CC7CC78C6=CC(=O)c6[nH]cc(C)c68)cc54)[nH]c13)CCN2C(N)=O (stereo not shown) [CC-1065],"potency in vitro relative to doxorubicin, methotrexate and vincristine",[1],about 1000 fold
IFN-α,patients who responded to treatment,[2],7 of 14
"CC(=O)O[C@H]1C(=O)[C@@]2(C)[C@H]([C@H](OC(=O)c3ccccc3)[C@]3(O)C[C@H](OC(=O)[C@H](O)[C@@H](NC(=O)c4ccccc4)c4ccccc4)C(C)=C1C3(C)C)[C@]1(OC(C)=O)CO[C@@H]1C[C@@H]2O [taxol, reference compound]",growth of tumors,[3],effective until day 14
"IGF-I: insulin-like growth factor-I, ligand of the IGF-I receptor used as growth stimulant [reference compound]",Fold growth response to IGF-I (MTT assay: ratio for IGF-I treated vs untreated cells in serum-free medium),[4],1.4
same,Fold growth response to IGF-I (MTT assay: ratio for IGF-I treated vs untreated cells in serum-free medium),[5],2.5
same,Fold growth response to IGF-I (MTT assay: ratio for IGF-I treated vs untreated cells in serum-free medium),[6],1.5
same,Fold growth response to IGF-I (MTT assay: ratio for IGF-I treated vs untreated cells in serum-free medium),[7],2.3
same,Fold growth response to IGF-I (MTT assay: ratio for IGF-I treated vs untreated cells in serum-free medium),[8],2.2
same,Fold growth response to IGF-I (MTT assay: ratio for IGF-I treated vs untreated cells in serum-free medium),[9],1.4
same,Fold growth response to IGF-I (MTT assay: ratio for IGF-I treated vs untreated cells in serum-free medium),[10],1.6-1.8
same,cells in the G0/G1 phase,[11],50%
same,cells in the S phase,[11],41%
same,Fold growth response to IGF-I (MTT assay: ratio for IGF-I treated vs untreated cells in serum-free medium),[12],2
same,Fold growth response to IGF-I (MTT assay: ratio for IGF-I treated vs untreated cells in serum-free medium),"[13]; MCF-7 (breast), 10 ng/mL IGF-I, 3- to 4-day",1.7-2.8
same,Fold growth response to IGF-I (MTT assay: ratio for IGF-I treated vs untreated cells in serum-free medium),[14],2
same,Fold growth response to IGF-I (MTT assay: ratio for IGF-I treated vs untreated cells in serum-free medium),[15],1.6
same,Fold growth response to IGF-I (MTT assay: ratio for IGF-I treated vs untreated cells in serum-free medium),[16],1.4
same,Fold growth response to IGF-I (MTT assay: ratio for IGF-I treated vs untreated cells in serum-free medium),[17],3
same,Fold growth response to IGF-I (MTT assay: ratio for IGF-I treated vs untreated cells in serum-free medium),[18],1.2
same,Fold growth response to IGF-I (MTT assay: ratio for IGF-I treated vs untreated cells in serum-free medium),[19],1.7
"Fab fragment of EM164 antibody: Fab fragment of EM164 antibody, prepared by papain digestion (antibody, V domains shown) VH: QVQLQQSGAELVKPGASVKLSCKASGYTFTSYWMHWVKQRPGQGLEWIGEINPSNGRTNYNEKFKRKATLTVDKSSSTAYMQLSSLTSEDSAVYYFARGRPDYYGSSKWYFDVWGAGTTVTVS VL: DVLMTQTPLSLPVSLGDQASISCRSSQSIVHSNVNTYLEWYLQKPGQSPKLLIYKVSNRFSGVPDRFSGSGSGTDFTLRISRVEAEDLGIYYCFQGSHVPPTFGGGTKLEIKR",Kd,[20],0.3 nM
"humanized EM164 v1.0: resurfaced EM164 with all 10 human surface residues (light chain aa3 V, aa45 R) (antibody, V domains shown) VH: QVQLVQSGAEVVKPGASVKLSCKASGYTFTSYWMHWVKQRPGQGLEWIGEINPSNGRTNYNQKFQGKATLTVDKSSSTAYMQLSSLTSEDSAVYYFARGRPDYYGSSKWYFDVWGQGTTVTVS VL: DVVMTQTPLSLPVSLGDPASISCRSSQSIVHSNVNTYLEWYLQKPGQSPRLLIYKVSNRFSGVPDRFSGSGAGTDFTLRISRVEAEDLGIYYCFQGSHVPPTFGGGTKLEIKR",slope (=Kd humanized Ab / Kd murine Ab),"[21]; biotinylated IGF-I receptor, FIG. 11, r^2=0.996",0.52
same,"inhibition of serum-stimulated growth and survival of MCF-7 cells, compared with murine EM164",[13],similar
"chimeric version of EM164 antibody with 92F→C mutation: chimeric version of EM164 antibody with 92F→C mutation in heavy chain (antibody, V domains shown) VH: QVQLQQSGAELVKPGASVKLSCKASGYTFTSYWMHWVKQRPGQGLEWIGEINPSNGRTNYNEKFKRKATLTVDKSSSTAYMQLSSLTSEDSAVYYCARGRPDYYGSSKWYFDVWGAGTTVTVSS VL: DVLMTQTPLSLPVSLGDQASISCRSSQSIVHSNVNTYLEWYLQKPGQSPKLLIYKVSNRFSGVPDRFSGSGSGTDFTLRISRVEAEDLGIYYCFQGSHVPPTFGGGTKLEIK",lower affinity than murine EM164 antibody for binding to IGF-I receptor,[21],3 fold
same,slope in binding competition with murine EM164 antibody,[21]; similar binding competition,about 3
